Results: patent US7931742B2, “Biocidal Structural Barrier (BSB)” (BASF SE, priority 2005, dated 2011)

Test system: termites
Test: Anti-termite effectiveness of chlorfenapyr incorporated in a concrete block (barrier test after NF X41-541)
Assay type: in vivo
Protocol: A block of concrete, 10 cm high, with passages for the termites, is poured, incorporating the treatment product in the mixing water.
After drying and an infiltration test, the test set-up and performance follow the standard NF X41-541. The barrier effect of the specimen is verified by evaluation of the mortality and penetration of the termites in the clean compartment containing blocks of wood. An evaluation of the blocks of wood following the scoring of EN NF 117 is performed at the end of the test.

What does the source list for `CCOCn1c(-c2ccc(Cl)cc2)c(C#N)c(Br)c1C(F)(F)F` [chlorfenapyr]?
Barrier effect of treated concrete against termites (concrete treated with chlorfenapyr, overall conclusion): effectively prevents termites from attacking a building; Rate of survival % (series A: concentration studied 0.05 % (m/m), retention in the concrete: product 261 ppm, chlorfenapyr 56 ppm, 132 g/m^3): 0%; Rate of survival % (series B: concentration studied 0.1 % (m/m), retention in the concrete: product 521 ppm, chlorfenapyr 112 ppm, 265 g/m^3): 0%; Rate of survival % (series C: concentration studied 0.3 % (m/m), retention in the concrete: product 1567 ppm, chlorfenapyr 337 ppm, 795 g/m^3): 0%; Rate of survival % (series D: concentration studied 0.6 % (m/m), retention in the concrete: product 3132 ppm, chlorfenapyr 673 ppm, 1588 g/m^3): 0%
